This note sets out measurements from ChEMBL document CHEMBL5532646, “Discovery of 4-(N-dithiobenzyl piperazine)-1,8-naphthalimide as a potent multi-target antitumor agent with good efficacy, limited toxicity, and low resistance” (Eur J Med Chem, 2024).

For orientation: IC50 means the concentration at which inhibition is half-maximal. Low values mean inhibition by little substance, high ones a need for much substance. In general, inhibition in vivo refers to the drop in the measured response relative to a control, in per cent.

Calls of active or inactive are those of the source. The rule behind the calls is not given here.

One data set has as its system MGC-803. In words: Antiproliferative activity against human MGC-803 cells incubated for 48 hrs by MTT assay. It is filed as functional, cell-based. To be noted: MGC-803, 48 h. (Formazan colour is commonly taken as a measure of viable cells.)
Data set [1] has as its system HepG2. The data set can be described thus: Antiproliferative activity against human HepG2 cells incubated for 48 hrs by MTT assay. Format: functional, cell-based. To be noted: HepG2, 48 h.
For data set [2], the system named is SK-OV-3. In words: Antiproliferative activity against human SK-OV-3 cells incubated for 48 hrs by MTT assay. It is filed as functional, cell-based. The note with it: SK-OV-3, 48 h.
The test system of data set [3] is T-24. The data set can be described thus: Antiproliferative activity against human T24 cells incubated for 48 hrs by MTT assay. It is filed as functional, cell-based. To be noted: T-24, 48 h.
Another data set relates to A549. The data set can be described thus: Antiproliferative activity against human A549 cells incubated for 48 hrs by MTT assay. Format: functional, cell-based.
A further data set deals with A549/CDDP. In words: Antiproliferative activity against human A549/DDP cells incubated for 48 hrs by MTT assay. Format: functional, cell-based.
The test system of data set [4] is T-24. The data set can be described thus: Antiproliferative activity against human T24 cells xenografted in nude mouse model assessed as tumor inhibition rate at 5 mg/kg, ip administered once every two days for 21 days relative to control. Format: functional. The note with it: T-24, 504 h, time 21 day. For orientation: Xenograft models place foreign cells or tissue in a host animal.

Data set [5] concerns T-24. In words: Antiproliferative activity against human T24 cells xenografted in nude mouse model assessed as tumor inhibition rate at 15 mg/kg, ip administered once every two days for 21 days relative to control. Format: functional. To be noted: T-24, 504 h, time 21 day.
The nature of data set [6]: Toxicity in nude mouse model xenografted with human T24 cells assessed as pathological change in heart at 5 to 15 mg/kg, ip administered once every two days for 21 days. Format: organism-based, T-24. To be noted: in vivo, 504 h, dose 5-15 mg/kg, time 21 day.
Data set [7] in a line: Toxicity in nude mouse model xenografted with human T24 cells assessed as pathological change in liver at 5 to 15 mg/kg, ip administered once every two days for 21 days. It is filed as organism-based, T-24. The note with it: in vivo, 504 h, dose 5-15 mg/kg, time 21 day.
Data set [8] in a line: Toxicity in nude mouse model xenografted with human T24 cells assessed as pathological change in spleen at 5 to 15 mg/kg, ip administered once every two days for 21 days. The note with it: in vivo, 504 h, dose 5-15 mg/kg, time 21 day. It is filed as organism-based, T-24.
Data set [9] in a line: Toxicity in nude mouse model xenografted with human T24 cells assessed as pathological change in lung at 5 to 15 mg/kg, ip administered once every two days for 21 days. Format: organism-based, T-24. The note with it: in vivo, 504 h, dose 5-15 mg/kg, time 21 day.
Data set [10] relates to HepG2. In words: Antiproliferative activity against human HepG2 cells xenografted in nude mouse model assessed as tumor inhibition rate at 5 mg/kg, ip administered once every two days for 21 days relative to control. It is filed as functional. The note with it: HepG2, 504 h, time 21 day.
The test system of data set [11] is HepG2. The data set can be described thus: Antiproliferative activity against human HepG2 cells xenografted in nude mouse model assessed as tumor inhibition rate at 15 mg/kg, ip administered once every two days for 21 days relative to control. It is filed as functional. The note with it: HepG2, 504 h, time 21 day.
Data set [12] in a line: Toxicity in nude mouse model xenografted with human HepG2 cells assessed as pathological change in heart at 5 to 15 mg/kg, ip administered once every two days for 21 days. It is filed as organism-based. The note with it: in vivo, 504 h, dose 5-15 mg/kg, time 21 day.
Data set [13] can be described thus: Toxicity in nude mouse model xenografted with human HepG2 cells assessed as pathological change in liver at 5 to 15 mg/kg, ip administered once every two days for 21 days. It is filed as organism-based. The note with it: in vivo, 504 h, dose 5-15 mg/kg, time 21 day.
A short description of data set [14]: Toxicity in nude mouse model xenografted with human HepG2 cells assessed as pathological change in spleen at 5 to 15 mg/kg, ip administered once every two days for 21 days. Format: organism-based. To be noted: in vivo, 504 h, dose 5-15 mg/kg, time 21 day.
A short description of data set [15]: Toxicity in nude mouse model xenografted with human HepG2 cells assessed as pathological change in lung at 5 to 15 mg/kg, ip administered once every two days for 21 days. It is filed as organism-based. The note with it: in vivo, 504 h, dose 5-15 mg/kg, time 21 day.
Data set [16] has as its system SK-OV-3. In words: Antiproliferative activity against human SK-OV-3 cells xenografted in nude mouse model assessed as tumor inhibition rate at 15 mg/kg, ip administered once every two days for 21 days relative to control. It is filed as functional. To be noted: SK-OV-3, 504 h, time 21 day.
Data set [17] concerns SK-OV-3. In words: Antiproliferative activity against human SK-OV-3 cells xenografted in nude mouse model assessed as tumor inhibition rate administered intraperitoneally once every two days for 21 days. It is filed as functional, cell-based. To be noted: dose 15.0 mg/kg, route ip, time 21.0 day.
The nature of data set [18]: Toxicity in nude mouse model xenografted with human SK-OV-3 cells assessed as pathological change in heart at 15 mg/kg, ip administered once every two days for 21 days. The note with it: in vivo, 504 h, time 21 day. It is filed as organism-based.
A short description of data set [19]: Toxicity in nude mouse model xenografted with human SK-OV-3 cells assessed as pathological change in liver at 15 mg/kg, ip administered once every two days for 21 days. Format: organism-based. To be noted: in vivo, 504 h, time 21 day.
Data set [20] is described as follows: Toxicity in nude mouse model xenografted with human SK-OV-3 cells assessed as pathological change in spleen at 15 mg/kg, ip administered once every two days for 21 days. The note with it: in vivo, 504 h, time 21 day. It is filed as organism-based.
Data set [21] can be described thus: Toxicity in nude mouse model xenografted with human SK-OV-3 cells assessed as pathological change in lung at 15 mg/kg, ip administered once every two days for 21 days. It is filed as organism-based. To be noted: in vivo, 504 h, time 21 day.
For data set [22], the system named is SK-OV-3. The data set can be described thus: Antiproliferative activity against human SK-OV-3 cells xenografted in nude mouse model assessed as tumor inhibition rate at 5 mg/kg, ip administered once every two days for 21 days relative to control. Format: functional. The note with it: SK-OV-3, 504 h, time 21 day.

Take `CNCCCN1C(=O)c2cccc3c(N4CCN(C(=S)SCc5ccccc5)CC4)ccc(c23)C1=O`: the IC50 was found to be 3040 nM with MGC-803, 1540 nM in the data set on HepG2 [1], 1070 nM with SK-OV-3 [2] and 590 nM in the data set on T-24 [3]. Moreover, the result in the data set on A549 and in the data set with A549/CDDP was Active. Besides, the inhibition in vivo at 5 mg/kg with T-24 [4] is 55.1%; with HepG2 [10], 53%. In addition, the inhibition in vivo at 15 mg/kg in the data set on T-24 [5] came out at 57.1%; with HepG2 [11], 58.8%; in the data set on SK-OV-3 [16] it was 53.1%. In addition, the Activity entry in data set [6], in data set [7], in data set [8], in data set [9], in data set [12] and in data set [13] was “Non-Toxic” in each case. The Activity entry in data set [14], in data set [15], in data set [18], in data set [19], in [20] and in data set [21] was “Non-Toxic” in each case. Moreover, the inhibition entry in the data set with SK-OV-3 [17] was “Dose-Dependent Effect”.
Take `CN(C)CCN1C(=O)c2cccc3c(N4CCN(C(=O)c5ccccc5)CC4)ccc(c23)C1=O`: the IC50 in the data set with MGC-803 was 5730 nM; in the data set on HepG2 [1] it was 4780 nM; in the data set on SK-OV-3 [2], 2010 nM; in the data set on T-24 [3] it was 2080 nM. Besides, the outcome in the data set with A549 and in the data set with A549/CDDP was Active. In addition, the inhibition in vivo at 5 mg/kg in the data set with T-24 [4] was found to be 55%; in the data set on HepG2 [10], 51.5%. Besides, the inhibition in vivo at 15 mg/kg in the data set on T-24 [5] came out at 64.5%; in the data set with HepG2 [11], 54.5%. In addition, the Activity entry in data set [6], in data set [7], in data set [8], in data set [9], in data set [12] and in data set [13] was “Non-Toxic” in each case. Moreover, the Activity entry in data set [14] and in data set [15] was “Non-Toxic” throughout.
The compound `CN(C)CCN1C(=O)c2cccc3cc(N)cc(c23)C1=O` [AMONAFIDE] showed an IC50 in the data set on HepG2 [1] of 7940 nM. Moreover, the inhibition in vivo at 5 mg/kg in the data set on T-24 [4] is 70.6%; in the data set on SK-OV-3 [22], 62.1%. The inhibition in vivo at 15 mg/kg in the data set with HepG2 [11] amounted to 62%.
